Data reported in patent US20170253607A1, “LONG-ACTING HIV PROTEASE INHIBITOR” (Shionogi & Co., Ltd., priority 2014, published 2017).

molecular target: HIV-1 PR (Human immunodeficiency virus type 1 group M subtype B, UniProt P04585); experiment: HIV-protease inhibitory activity assay (FRET peptide substrate); type: biochemical; conditions: Test Example 1
Summary of the method: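 Fluorescence recovery at ex 485/em 535 nm reports cleavage of a quenched FRET peptide (2 μmol/L final) by 0.83 ng enzyme over 60 minutes at room temperature. Buffer was NaAc pH 4.8 with NaCl, EDTA, DTT and Tween 20. IC50 values came from four-parameter logistic regression of % inhibition.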

Structure (SMILES) | IC50 [nM]
COc1ccc(S(=O)(=O)N(CC(C)C)CC(O)C(Cc2ccc(N(C)Cc3ccc(Cl)cc3C(=O)Nc3sc4c(c3C(=O)O)CC(C)(C)CC4)cc2)NC(=O)OC2COC3(C)OCCC23)cc1 (stereo not shown) [Compound I-659] | 9.51
COc1ccc(S(=O)(=O)N(CC(C)C)CC(O)C(Cc2ccc(NCc3ccccc3-c3c(C(=O)O)[nH]c4ccccc34)cc2)NC(=O)OC2COC3(C)OCCC23)cc1 (stereo not shown) [Compound I-660] | 2.12
COc1ccc(S(=O)(=O)N(CC(C)C)CC(O)C(Cc2ccc(NCc3ccccc3-c3c(C(=O)O)[nH]c4ccc(Cl)cc34)cc2)NC(=O)OC2COC3(C)OCCC23)cc1 (stereo not shown) [Compound I-661] | 2.35
COc1ccc(S(=O)(=O)N(CC(C)C)CC(O)C(Cc2ccc(N(C)CC(=O)Nc3sc4c(c3C(=O)O)CC(C)(C)CC4)cc2)NC(=O)OC2COC3(C)OCCC23)cc1 (stereo not shown) [Compound I-663] | 2.8
COc1ccc(S(=O)(=O)N(CC(C)C)CC(O)C(Cc2ccc(N3CCC(Cc4ccccc4-c4sc5c(c4C(=O)O)CC(C)(C)CC5)C3)cc2)NC(=O)OC2COC3(C)OCCC23)cc1 (stereo not shown) [Compound I-667] | 7.95
COc1ccc(S(=O)(=O)N(CC(C)C)CC(O)C(Cc2ccc(N3CCC(Cc4ccccc4-c4sc5c(c4C(=O)O)CC(C)(C)CC5)C3)cc2)NC(=O)OC2COC3(C)OCCC23)cc1 (stereo not shown) [Compound I-668] | 7.06
CCN(Cc1ccccc1C(=O)Nc1sc2c(c1C(=O)O)CC(C)(C)CC2)c1ccc(CC(NC(=O)OC2COC3(C)OCCC23)C(O)CN(CC(C)C)S(=O)(=O)c2ccc(OC)cc2)cc1 (stereo not shown) [Compound I-669] | 8.54
COc1ccc(S(=O)(=O)N(CC(C)C)CC(O)C(Cc2ccc(NCC3CCCC3c3sc4c(c3C(=O)O)CC(C)(C)CC4)cc2)NC(=O)OC2COC3(C)OCCC23)cc1 (stereo not shown) [Compound I-670] | 2.67
COc1ccc(S(=O)(=O)N(CC(C)C)CC(O)C(Cc2ccc(N3CC(Oc4cc5ccccc5cc4C(=O)Nc4sc5c(c4C(=O)O)CC(C)(C)CC5)C3)cc2)NC(=O)OC2COC3(C)OCCC23)cc1 (stereo not shown) [Compound I-671] | 34.8
COc1ccc(S(=O)(=O)N(CC(C)C)CC(O)C(Cc2ccc(N3CCC(C(=O)Nc4ccccc4-c4sc5c(c4C(=O)O)CC(C)(C)CC5)C3)cc2)NC(=O)OC2COC3(C)OCCC23)cc1 (stereo not shown) [Compound I-672] | 2.05
COc1ccc(S(=O)(=O)N(CC(C)C)CC(O)C(Cc2ccc(NCc3cccc4c(-c5sc6c(c5C(=O)O)CC(C)(C)CC6)cccc34)cc2)NC(=O)OC2COC3(C)OCCC23)cc1 (stereo not shown) [Compound I-675] | 13.4
COc1ccc(S(=O)(=O)N(CC(C)C)CC(O)C(Cc2ccc(NCc3ccc(N4CCCCC4)cc3-c3sc4c(c3C(=O)O)CC(C)(C)CC4)cc2)NC(=O)OC2COC3(C)OCCC23)cc1 (stereo not shown) [Compound I-677] | 2.32
COc1ccc(S(=O)(=O)N(CC(C)C)CC(O)C(Cc2ccc(NCc3cc(OC(F)(F)F)ccc3-c3sc4c(c3C(=O)O)CC(C)(C)CC4)cc2)NC(=O)OC2COC3(C)OCCC23)cc1 (stereo not shown) [Compound I-678] | 5.48
CN(Cc1ccccc1C(=O)Nc1sc2c(c1C(=O)O)CC(C)(C)CC2)c1ccc(CC(NC(=O)OC2COC3(C)OCCC23)C(O)CN(CC2CCCC2)S(=O)(=O)c2ccc3c(c2)OCO3)cc1 (stereo not shown) [Compound I-681] | 7.97
COc1ccc(S(=O)(=O)N(CC2CCC2)CC(O)C(Cc2ccc(N(C)Cc3ccccc3C(=O)Nc3sc4c(c3C(=O)O)CC(C)(C)CC4)cc2)NC(=O)OC2COC3(C)OCCC23)cc1 (stereo not shown) [Compound I-682] | 4.37
COc1ccc(S(=O)(=O)N(CC(C)C)CC(O)C(Cc2ccc(N(C)Cc3ccc(OC)cc3C(=O)Nc3sc4c(c3C(=O)O)CC(C)(C)CC4)cc2)NC(=O)OC2COC3(C)OCCC23)cc1 (stereo not shown) [Compound I-683] | 5.74
COc1ccc(S(=O)(=O)N(CC(C)C)CC(O)C(Cc2ccc(NCc3cc(Oc4cccc5cccnc45)ccc3-c3sc4c(c3C(=O)O)CC(C)(C)CC4)cc2)NC(=O)OC2COC3(C)OCCC23)cc1 (stereo not shown) [Compound I-684] | 2.83
COc1ccc(S(=O)(=O)N(CC(C)C)CC(O)C(Cc2ccc(NCc3cc(Oc4ccccn4)ccc3-c3sc4c(c3C(=O)O)CC(C)(C)CC4)cc2)NC(=O)OC2COC3(C)OCCC23)cc1 (stereo not shown) [Compound I-685] | 2.98
COc1ccc(S(=O)(=O)N(CC(C)C)CC(O)C(Cc2ccc(N(C)Cc3cc(Oc4ccccn4)ccc3-c3sc4c(c3C(=O)O)CC(C)(C)CC4)cc2)NC(=O)OC2COC3(C)OCCC23)cc1 (stereo not shown) [Compound I-686] | 3.6
COc1ccc(S(=O)(=O)N(CC(C)C)CC(O)C(Cc2ccc(NCc3ncccc3C(=O)Nc3sc4c(c3C(=O)O)CC(C)(C)CC4)cc2)NC(=O)OC2COC3(C)OCCC23)cc1 (stereo not shown) [Compound I-687] | 2.48
COc1ccc(S(=O)(=O)N(CC(C)C)CC(O)C(Cc2ccc(NCc3cc(Oc4cccnc4)ccc3-c3sc4c(c3C(=O)O)CC(C)(C)CC4)cc2)NC(=O)OC2COC3(C)OCCC23)cc1 (stereo not shown) [Compound I-688] | 2.59
COc1ccc(S(=O)(=O)N(CC(C)C)CC(O)C(Cc2ccc(NCc3ccc(C(F)(F)F)cc3C(=O)Nc3sc4c(c3C(=O)O)CC(C)(C)CC4)cc2)NC(=O)OC2COC3(C)OCCC23)cc1 (stereo not shown) [Compound I-690] | 7.7

Structure (SMILES) | IC50 [nM]
COc1ccc(S(=O)(=O)N(CC(C)C)CC(O)C(Cc2ccc(NCc3cc(C(F)(F)F)ccc3C(=O)Nc3sc4c(c3C(=O)O)CC(C)(C)CC4)cc2)NC(=O)OC2COC3(C)OCCC23)cc1 (stereo not shown) [Compound I-691] | 6.44
COc1ccc(S(=O)(=O)N(CC(C)C)CC(O)C(Cc2ccc(N(C)Cc3cc(-c4ccc5ccccc5c4)ccc3-c3sc4c(c3C(=O)O)CC(C)(C)CC4)cc2)NC(=O)OC2COC3(C)OCCC23)cc1 (stereo not shown) [Compound I-692] | 26.1
COc1ccc(S(=O)(=O)N(CC(C)C)CC(O)C(Cc2ccc(N(C)Cc3ncccc3C(=O)Nc3sc4c(c3C(=O)O)CC(C)(C)CC4)cc2)NC(=O)OC2COC3(C)OCCC23)cc1 (stereo not shown) [Compound I-694] | 2.27
COc1ccc(S(=O)(=O)N(CC(C)C)CC(O)C(Cc2ccc(NCc3ccc(Oc4ccccc4)cc3-c3sc4c(c3C(=O)O)CC(C)(C)CC4)cc2)NC(=O)OC2COC3(C)OCCC23)cc1 (stereo not shown) [Compound I-695] | 4.07
COc1ccc(S(=O)(=O)N(CC(C)C)CC(O)C(Cc2ccc(N(C)Cc3ccc(Oc4ccccc4)cc3-c3sc4c(c3C(=O)O)CC(C)(C)CC4)cc2)NC(=O)OC2COC3(C)OCCC23)cc1 (stereo not shown) [Compound I-696] | 12.2
COc1ccc(S(=O)(=O)N(CC(C)C)CC(O)C(Cc2ccc(NC3CCc4c(-c5sc6c(c5C(=O)O)CC(C)(C)CC6)cccc43)cc2)NC(=O)OC2COC3(C)OCCC23)cc1 (stereo not shown) [Compound I-697] | 2.9
COc1ccc(S(=O)(=O)N(CC(C)C)CC(O)C(Cc2ccc(N(C)Cc3cc(OC(F)(F)F)ccc3-c3sc4c(c3C(=O)O)CC(C)(C)CC4)cc2)NC(=O)OC2COC3(C)OCCC23)cc1 (stereo not shown) [Compound I-699] | 10.3
COc1ccc(S(=O)(=O)N(CC(C)C)CC(O)C(Cc2ccc(N(C)Cc3cc(N4CCOCC4)ccc3-c3sc4c(c3C(=O)O)CC(C)(C)CC4)cc2)NC(=O)OC2COC3(C)OCCC23)cc1 (stereo not shown) [Compound I-700] | 2.02
COc1ccc(S(=O)(=O)N(CC(C)C)CC(O)C(Cc2ccc(N(C)Cc3cnc4sccc4c3-c3sc4c(c3C(=O)O)CC(C)(C)CC4)cc2)NC(=O)OC2COC3(C)OCCC23)cc1 (stereo not shown) [Compound I-702] | 2.15
COc1ccc(S(=O)(=O)N(CC(C)C)CC(O)C(Cc2ccc(N(C)Cc3cc(-c4sc5c(c4C(=O)O)CC(C)(C)CC5)cc4ccccc34)cc2)NC(=O)OC2COC3(C)OCCC23)cc1 (stereo not shown) [Compound I-703] | 4.6
COc1ccc(S(=O)(=O)N(CC(C)C)CC(O)C(Cc2ccc(NCC3=C(c4sc5c(c4C(=O)O)CC(C)(C)CC5)CCC(F)(F)C3)cc2)NC(=O)OC2COC3(C)OCCC23)cc1 (stereo not shown) [Compound I-705] | 4.87
COc1ccc(S(=O)(=O)N(CC(C)C)CC(O)C(Cc2ccc(N(C)CC3=C(c4sc5c(c4C(=O)O)CC(C)(C)CC5)CCC(F)(F)C3)cc2)NC(=O)OC2COC3(C)OCCC23)cc1 (stereo not shown) [Compound I-706] | 6.62
COc1ccc(S(=O)(=O)N(CC(C)C)CC(O)C(Cc2ccc(N(C)Cc3cc(N4CCC4)ccc3-c3sc4c(c3C(=O)O)CC(C)(C)CC4)cc2)NC(=O)OC2COC3(C)OCCC23)cc1 (stereo not shown) [Compound I-708] | 1.65
COc1ccc(S(=O)(=O)N(CC(C)C)CC(O)C(Cc2ccc(N(C)C3CCc4c(-c5sc6c(c5C(=O)O)CC(C)(C)CC6)cccc43)cc2)NC(=O)OC2COC3(C)OCCC23)cc1 (stereo not shown) [Compound I-709] | 7.2
COc1ccc(S(=O)(=O)N(CC(C)C)CC(O)C(Cc2ccc(N(C)C3CCc4c(-c5sc6c(c5C(=O)O)CC(C)(C)CC6)cccc43)cc2)NC(=O)OC2COC3(C)OCCC23)cc1 (stereo not shown) [Compound I-710] | 4.26
COc1ccc(S(=O)(=O)N(CC(C)C)CC(O)C(Cc2ccc(NC3CCCc4c(-c5sc6c(c5C(=O)O)CC(C)(C)CC6)cccc43)cc2)NC(=O)OC2COC3(C)OCCC23)cc1 (stereo not shown) [Compound I-711] | 8.1
COc1ccc(S(=O)(=O)N(CC(C)C)CC(O)C(Cc2ccc(NCc3ccccc3-c3cnc(-c4sc5c(c4C(=O)O)CC(C)(C)CC5)nc3)cc2)NC(=O)OC2COC3(C)OCCC23)cc1 (stereo not shown) [Compound I-712] | 2.02
COc1ccc(S(=O)(=O)N(CC(C)C)CC(O)C(Cc2ccc(NCc3ccccc3-c3ccc(-c4sc5c(c4C(=O)O)CC(C)(C)CC5)nc3)cc2)NC(=O)OC2COC3(C)OCCC23)cc1 (stereo not shown) [Compound I-713] | 1.69
COc1ccc(S(=O)(=O)N(CC(C)C)CC(O)C(Cc2ccc(N(C)Cc3nc(N4CCCC4)sc3-c3ccc(-c4sc5c(c4C(=O)O)CC(C)(C)CC5)cc3)cc2)NC(=O)OC2COC3(C)OCCC23)cc1 (stereo not shown) [Compound I-715] | 5.31
COc1ccc(S(=O)(=O)N(CC(C)C)CC(O)C(Cc2ccc(NCc3ccc(C)cc3C(=O)Nc3sc4c(c3C(=O)O)CC(C)(C)CC4)cc2)NC(=O)OC2COC3(C)OCCC23)cc1 (stereo not shown) [Compound I-716] | 3.95
COc1ccc(S(=O)(=O)N(CC(C)C)CC(O)C(Cc2ccc(NCc3cc(C)ccc3C(=O)Nc3sc4c(c3C(=O)O)CC(C)(C)CC4)cc2)NC(=O)OC2COC3(C)OCCC23)cc1 (stereo not shown) [Compound I-717] | 2.77
